This passage reports EC50 and IC90 results from patent publication US20260374754A1, “N-((ISOQUINOLIN-6-YL)METHYL)-1H-PYRAZOLE-4-CARBOXAMIDE DERIVATIVES AS PLASMA KALLIKREIN INHIBITORS FOR THE TREATMENT OF HEREDITARY ANGIODEMA” (Takeda Pharmaceutical Company Limited, priority 2022, published 2026).

What is called EC50 is the concentration needed to bring the measured effect to its halfway point. A word on the IC90: it is the concentration at which the effect reaches the 90% level. Read a low IC90 as an effect from little substance.

Structures can show the parent of a compound that is named as a salt.

The target of test [1] is human activated kallikrein enzyme (Homo sapiens, UniProt P03952). As to the kind of experiment: Inhibition of human activated plasma kallikrein, fluorogenic PFR-AMC substrate, 500 pM enzyme format. It is filed as biochemical. Particulars: 500 pM activated kallikrein; 300 μM PFR-AMC; 30 min preincubation; 10 min room temperature; pH 7.5; read-out: Primary Dose Response Assay: Average EC50. An outline of the steps: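 500 pM activated kallikrein preincubated 30 min at room temperature with inhibitors in pH 7.5 Tris/EDTA/NaCl buffer with PEG-400 and Triton X-100. Reaction started with 300 μM PFR-AMC, run 10 min at room temperature; AMC fluorescence read at ex 380/em 460 nm.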

The target in a further test is T1, plasma kallikrein (Homo sapiens, UniProt P03952).
T1 construct: PFR-AMC substrate
As to the kind of experiment: Neat Human Plasma Assay (Fluorogenic Peptide), contact pathway-activated (FXIIa) plasma. The format is biochemical. Particulars: human citrated plasma 78% final; 10 nM human FXIIa; PFR-AMC substrate; 5 minutes; room temperature. As for the experimental part: To analyze inhibition of plasma kallikrein in an ex vivo setting, the potency of compounds was measure in contact pathway-activated plasma assays. In a fluorogenic peptide substrate assay, test compounds dissolved in DMSO were added to sodium citrate collected human or rat plasma in a 96-well microplate. Alternatively, citrated plasma was collected from rats administered the compounds orally or by IV. 10 nM of human FXIIa (Enzyme Research Laboratories) diluted in PKa buffer (20 mM Tris-HCl, pH 7.5, 150 mM NaCl, 1 mM EDTA, 0.1% PEG-8000, and 0.1% Triton X-100) was added to the plasma, followed by the […] of the profluorescent, synthetic plasma kallikrein substrate PFR-AMC (also diluted in PKa buffer). Final plasma concentration in the reaction was 78%. Fluorescence was immediately monitored by excitation/emission wavelengths of 360 nm/480 nm respectively over a period of 5 minutes in a microplate reader. The resulting linear increase in fluorescence emission (reflecting PKa proteolysis of PFR-AMC substrate) was fit to extract a proteolytic rate (fluorescent units over time), and this rate was subsequently plotted against compound inhibitor concentration. Resulting plots were fit to a standard 4-parameter IC50/IC90 equation to determine min/max values, IC50/90, and slope. All experimental steps were performed at room temperature.

T1 sequence (P03952 20-638): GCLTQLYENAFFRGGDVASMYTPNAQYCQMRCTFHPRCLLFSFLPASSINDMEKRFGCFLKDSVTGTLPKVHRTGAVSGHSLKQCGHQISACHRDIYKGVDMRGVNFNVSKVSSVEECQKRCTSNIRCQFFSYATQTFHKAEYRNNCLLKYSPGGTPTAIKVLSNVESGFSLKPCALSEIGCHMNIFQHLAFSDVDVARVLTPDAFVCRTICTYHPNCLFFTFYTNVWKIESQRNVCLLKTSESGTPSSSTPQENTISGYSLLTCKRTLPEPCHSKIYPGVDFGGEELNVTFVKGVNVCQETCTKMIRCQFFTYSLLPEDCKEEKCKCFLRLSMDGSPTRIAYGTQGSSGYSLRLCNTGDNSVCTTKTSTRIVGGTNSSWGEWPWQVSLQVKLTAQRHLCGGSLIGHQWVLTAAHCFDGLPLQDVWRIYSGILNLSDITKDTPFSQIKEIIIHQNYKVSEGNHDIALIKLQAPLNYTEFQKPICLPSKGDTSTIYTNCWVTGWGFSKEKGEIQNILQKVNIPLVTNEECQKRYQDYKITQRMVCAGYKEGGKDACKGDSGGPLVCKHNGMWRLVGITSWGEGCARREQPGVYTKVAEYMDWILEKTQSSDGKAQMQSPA
human activated kallikrein enzyme, sequence (P03952 391-638 limits assumed): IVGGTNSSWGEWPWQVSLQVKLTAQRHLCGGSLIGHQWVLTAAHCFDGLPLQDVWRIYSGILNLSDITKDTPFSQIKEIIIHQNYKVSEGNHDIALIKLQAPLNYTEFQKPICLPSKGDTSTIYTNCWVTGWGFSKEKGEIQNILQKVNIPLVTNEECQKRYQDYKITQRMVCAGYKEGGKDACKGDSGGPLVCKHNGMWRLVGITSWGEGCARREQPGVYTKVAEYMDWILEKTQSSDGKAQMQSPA
human activated kallikrein enzyme, sequence (P03952 20-390 partner limits assumed): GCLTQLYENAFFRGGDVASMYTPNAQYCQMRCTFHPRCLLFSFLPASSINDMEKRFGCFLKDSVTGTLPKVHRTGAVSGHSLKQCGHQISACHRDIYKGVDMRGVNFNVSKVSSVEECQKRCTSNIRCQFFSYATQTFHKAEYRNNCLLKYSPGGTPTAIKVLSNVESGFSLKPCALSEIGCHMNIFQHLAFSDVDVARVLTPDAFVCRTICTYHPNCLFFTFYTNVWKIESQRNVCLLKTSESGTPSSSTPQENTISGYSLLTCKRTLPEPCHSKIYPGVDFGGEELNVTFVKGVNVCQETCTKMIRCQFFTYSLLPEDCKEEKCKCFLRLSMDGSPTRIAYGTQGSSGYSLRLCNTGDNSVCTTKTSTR

In the case of `Cc1cc2c(N)nccc2c(C)c1CNc1cc(OCc2cn3cc(C4CC4)cc(N4CCCC4=O)c3n2)ncn1` [Example 259, 1-(2-(((6-(((1-amino-5,7-dimethylisoquinolin-6-yl)methyl)amino)pyrimidin-4-yl)oxy)methyl)-6-cyclopropylimidazo[1,2-a]pyridin-8-yl)pyrrolidin-2-one], the EC50 in test [1] was below 1 nM. The compound further gave a concentration for an effect of 90% (IC90) on plasma kallikrein of at most 1000 nM.
On the same counts, the results for `Cc1ccc2cc(Cn3ccc4nnc(NCc5c(C)cc6c(N)nccc6c5C)cc43)ccc2n1` [Example 515, 5,7-dimethyl-6-(((5-((2-methylquinolin-6-yl)methyl)-5H-pyrrolo[3,2-c]pyridazin-3-yl)amino)methyl)isoquinolin-1-amine] are below 1 nM and 1000 to 5000 nM.
In the case of `Cc1cc2c(N)nccc2c(C)c1CNC(=O)c1cnn(Cc2nc3ccc(C4CC4)cn3n2)c1` [Example I-482, N-((1-amino-5,7-dimethylisoquinolin-6-yl)methyl)-1-((6-cyclopropyl-[1,2,4]triazolo[1,5-a]pyridin-2-yl)methyl)-1H-pyrazole-4-carboxamide], in test [1], the EC50 was below 1 nM. This compound also gave an IC90 at plasma kallikrein of at most 1000 nM.
In the case of `Cc1cc2c(N)nccc2c(C)c1CNc1cc2c(cn1)ncn2Cc1nc2ccc(C3CC3)cn2n1` [Example 503, 6-(((1-((6-cyclopropyl-[1,2,4]triazolo[1,5-a]pyridin-2-yl)methyl)-1H-imidazo[4,5-c]pyridin-6-yl)amino)methyl)-5,7-dimethylisoquinolin-1-amine], in test [1], the concentration giving a half-maximal response (EC50) is below 1 nM. In addition, the IC90 at plasma kallikrein is at most 1000 nM.
For `Cc1cc2c(N)nccc2c(C)c1CNc1cc(OCc2cn3cc(C4CC4)ccc3n2)c(Cl)cn1` [Example 280, 6-(((5-chloro-4-((6-cyclopropylimidazo[1,2-a]pyridin-2-yl)methoxy)pyridin-2-yl)amino)methyl)-5,7-dimethylisoquinolin-1-amine], in that order: 1 to 10 nM and above 5000 nM.
Regarding `Cc1cc2c(N)nccc2c(C)c1CNc1cc(OCc2cn3nc(C4CC4)ccc3n2)ncn1` [Example 261, 6-(((6-((6-cyclopropylimidazo[1,2-b]pyridazin-2-yl)methoxy)pyrimidin-4-yl)amino)methyl)-5,7-dimethylisoquinolin-1-amine], the half-maximal effective concentration (EC50) in test [1] is below 1 nM. Moreover, the IC90 against plasma kallikrein was in the range of 1000 to 5000 nM.
Consider `Cc1cnc2ccc(Cn3cc(C(=O)NCc4c(C)cc5c(N)nccc5c4C)cn3)cc2c1` [Example 115, N-((1-amino-5,7-dimethylisoquinolin-6-yl)methyl)-1-((3-methylquinolin-6-yl)methyl)-1H-pyrazole-4-carboxamide], for which the concentration for a half-maximal effect (EC50) in test [1] is below 1 nM. Besides, the concentration for an effect of 90% (IC90) on plasma kallikrein was at most 1000 nM.
As to `Cc1cc2c(N)nccc2c(C)c1CNc1cc2c(cn1)cnn2Cc1cn2cc(C3CC3)ccc2n1` [Example 268, 6-(((1-((6-cyclopropylimidazo[1,2-a]pyridin-2-yl)methyl)-1H-pyrazolo[4,3-c]pyridin-6-yl)amino)methyl)-5,7-dimethylisoquinolin-1-amine], in test [1], the concentration for a half-maximal effect (EC50) is below 1 nM. This compound displayed an IC90 on plasma kallikrein of at most 1000 nM.
In the case of `Cc1cc2c(N)nccc2c(C)c1CNc1cc2c(ccn2Cc2cc3cc(C4CC4)cnc3s2)cn1` [Example 283, 6-(((1-((5-cyclopropylthieno[2,3-b]pyridin-2-yl)methyl)-1H-pyrrolo[3,2-c]pyridin-6-yl)amino)methyl)-5,7-dimethylisoquinolin-1-amine], the concentration giving a half-maximal response (EC50) in test [1] is 1 to 10 nM. This compound came in with an IC90 against plasma kallikrein of 1000 to 5000 nM.
For the compound `Cc1cc2c(N)nccc2c(C)c1CNc1cc(OCc2cc3cc(C4CC4)ccn3n2)ncn1` [Example 400, 6-(((6-((5-cyclopropylpyrazolo[1,5-a]pyridin-2-yl)methoxy)pyrimidin-4-yl)amino)methyl)-5,7-dimethylisoquinolin-1-amine], the EC50 in test [1] fell in the range of 1 to 10 nM. The same compound had an IC90 against plasma kallikrein above 5000 nM.
For the compound `Cc1cc2c(N)nccc2c(C)c1CNc1cc(Cc2cn3cc(C4CC4)ccc3n2)ncn1` [Example 403, 6-(((6-((6-cyclopropylimidazo[1,2-a]pyridin-2-yl)methyl)pyrimidin-4-yl)amino)methyl)-5,7-dimethylisoquinolin-1-amine], in test [1], the EC50 is below 1 nM. For the same compound, at plasma kallikrein, the IC90 is 1000 to 5000 nM.
On the same counts, the results for `Cc1cc2c(N)nccc2c(C)c1CNc1cc(OCc2cc3cc(C4CC4)cc(CCC(C)(C)O)n3n2)ncn1` [Example 508, 4-(2-(((6-(((1-amino-5,7-dimethylisoquinolin-6-yl)methyl)amino)pyrimidin-4-yl)oxy)methyl)-5-cyclopropylpyrazolo[1,5-a]pyridin-7-yl)-2-methylbutan-2-ol] are 1 to 10 nM and above 5000 nM.
For `Cc1cc2c(N)nccc2c(C)c1CNc1cc(OCc2ccc3ncc(C4CC4)cc3c2)ccn1` [Example 239, 6-(((4-((3-cyclopropylquinolin-6-yl)methoxy)pyridin-2-yl)amino)methyl)-5,7-dimethylisoquinolin-1-amine], in that order: 1 to 10 nM and above 5000 nM.
As to `Cc1c(CNc2cc(OCc3ccc(Cn4cccn4)cc3)ncn2)ccc2c(N)nccc12` [Example 533, 6-(((6-((4-((1H-pyrazol-1-yl)methyl)benzyl)oxy)pyrimidin-4-yl)amino)methyl)-5-methylisoquinolin-1-amine], the concentration giving a half-maximal response (EC50) in test [1] lay in the range of 1 to 10 nM. Besides, the IC90 at plasma kallikrein is above 5000 nM.
For `Cc1cc2c(N)nccc2c(C)c1CNc1cc(OCc2cc3cc(C4CC4)cc(CCC(=O)O)n3n2)ncn1` [Example 273, 3-(2-(((6-(((1-amino-5,7-dimethylisoquinolin-6-yl)methyl)amino)pyrimidin-4-yl)oxy)methyl)-5-cyclopropylpyrazolo[1,5-a]pyridin-7-yl)propanoic acid], in that order: below 1 nM and above 5000 nM.
Consider `Cc1cc2c(N)nccc2c(C)c1CNc1cc2c(cn1)nnn2Cc1cn2cc(C3CC3)ccc2n1` [Example 501, 6-(((1-((6-cyclopropylimidazo[1,2-a]pyridin-2-yl)methyl)-1H-[1,2,3]triazolo[4,5-c]pyridin-6-yl)amino)methyl)-5,7-dimethylisoquinolin-1-amine], for which the 50% effective concentration (EC50) in test [1] was below 1 nM. The 90% effect concentration (IC90) at plasma kallikrein was at most 1000 nM.
Consider `Cc1cc2c(N)nccc2c(C)c1CNc1cc(NCc2cn3nc(C4CC4)ccc3n2)ncn1` [Example 242, N4-((1-amino-5,7-dimethylisoquinolin-6-yl)methyl)-N6-((6-cyclopropylimidazo[1,2-b]pyridazin-2-yl)methyl)pyrimidine-4,6-diamine], for which the concentration for a half-maximal effect (EC50) in test [1] is below 1 nM. Besides, the 90% effect concentration (IC90) against plasma kallikrein is 1000 to 5000 nM.
On the same counts, the results for `Cc1cc2c(N)nccc2c(C)c1CNc1cc(NCc2ccc3ncc(C4CC4)cc3c2)ncn1` [Example 314, N^4-((1-amino-5,7-dimethylisoquinolin-6-yl)methyl)-N^6-((3-cyclopropylquinolin-6-yl)methyl)pyrimidine-4,6-diamine] are below 1 nM and 1000 to 5000 nM.
For `Cc1cc2c(N)nccc2c(C)c1CNC(=O)c1cnn(Cc2ccc3ncc(Cl)cc3c2)c1` [Example 89, N-((1-amino-5,7-dimethylisoquinolin-6-yl)methyl)-1-((3-chloroquinolin-6-yl)methyl)-1H-pyrazole-4-carboxamide], in that order: below 1 nM and at most 1000 nM.
For `Cc1cc2c(N)nccc2c(C)c1CNc1cc(NCc2cn3cc(C4CC4)ccc3n2)ncn1` [Example 331, N^4-((1-amino-5,7-dimethylisoquinolin-6-yl)methyl)-N^6-((6-cyclopropylimidazo[1,2-a]pyridin-2-yl)methyl)pyrimidine-4,6-diamine], in that order: below 1 nM and 1000 to 5000 nM.
As to `Cc1cc2c(N)nccc2c(C)c1CNc1cc(OCc2cn3cc(C4CC4)cc(C#N)c3n2)ncn1` [Example 258, 2-(((6-(((1-amino-5,7-dimethylisoquinolin-6-yl)methyl)amino)pyrimidin-4-yl)oxy)methyl)-6-cyclopropylimidazo[1,2-a]pyridine-8-carbonitrile], the EC50 in test [1] is below 1 nM. For the same compound, on plasma kallikrein, the IC90 was above 5000 nM.
Turning to `Cc1cc2c(N)nccc2c(C)c1CNc1cc(OCc2cn3cc(C4CC4)ccc3n2)cnn1` [Example 426, 6-(((5-((6-cyclopropylimidazo[1,2-a]pyridin-2-yl)methoxy)pyridazin-3-yl)amino)methyl)-5,7-dimethylisoquinolin-1-amine, formic acid salt], the EC50 in test [1] is below 1 nM. Besides, the IC90 at plasma kallikrein fell in the range of 1000 to 5000 nM.
On the same counts, the results for `Cc1cc2c(N)nccc2c(C)c1CNc1cc(OC(C)c2ccc(Cn3cccn3)cc2)cnn1` (single isomer, unassigned) [Example 276, (R*)-6-(((5-(1-(4-((1H-pyrazol-1-yl)methyl)phenyl)ethoxy)pyridazin-3-yl)amino)methyl)-5,7-dimethylisoquinolin-1-amine] are below 1 nM and at most 1000 nM.
